{"source": "patent US20070155687A1", "about": "“Methods and compositions for altering cell function” (Alltech, Inc., priority 2005, published 2007)", "key": {"[1]": {"test_system": "LIM homeobox protein 8 gene (Lhx8)", "test": "Intestinal gene expression: Lhx8", "assay_type": "in vivo", "conditions": "mouse intestine; diet 1 ppm Se, 100 days; vs Se-deficient subjects", "text": "(§1) Animal Care. Male C57BL/6J mice were housed singly and started on the experimental diets described below immediately after weaning (21 days of age). The mice were maintained in the Shared Aging Rodent Facility at the William S. Middleton Memorial Veterans Administration Medical Center (Madison, Wis.). Temperature and humidity were maintained at constant levels. Room light was controlled to provide 12-hr cycles of light and dark.\n(§2) Experimental diets were created by Harlan Teklad (Madison, Wis.). Selenium content of the diets was determined by Covance Inc. (Madison, Wis.). Five (5) animals were included in each of the following treatment groups: a diet deficient in selenium (SD); a diet supplemented with selenomethionine (SM, obtained from Sigma, St. Louis, Mo.) such that the final selenium content of the diet was one (1) part per million; a diet supplemented with sodium selenite (SS, Sigma) such that the final concentration of selenium in this diet was one (1) part per million; or a diet supplemented with the yeast selenium SEL-PLEX (SP, Alltech, Lexington, Ky), such that the final concentration of selenium in this diet was one (1) part per million. SEL-PLEX. […]\n(§3) Tissue sample preparation and microarray analysis. […] For intestinal expression studies, the intestine was flushed twice with saline solution and small intestine was measured and divided in three equal segments. […]"}, "[2]": {"test_system": "type II iodothyronine deiodinase, (Dio2)", "test": "Intestinal gene expression: Dio2", "assay_type": "in vivo", "conditions": "mouse intestine; diet 1 ppm Se, 100 days; vs selenium deficient", "text": "as §1, §2, §3"}, "Glyoxalase 1 (Glo 1)": {"test_system": "Glyoxalase 1 (Glo 1)", "test": "Intestinal gene expression: Glo1", "assay_type": "in vivo", "conditions": "mouse intestine; diet 1 ppm Se, 100 days; vs selenium deficient", "text": "as §1, §2, §3"}, "[3]": {"test_system": "sprouty homolog 2 gene (Spry2)", "test": "Intestinal gene expression: Spry2", "assay_type": "in vivo", "conditions": "mouse intestine; diet 1 ppm Se, 100 days; relative to Se-deficient controls", "text": "as §1, §2, §3"}, "[4]": {"test": "Body weight of mice on selenium diets", "assay_type": "in vivo, mouse", "conditions": "diet 1 ppm Se, 100 days; compared across diets incl. selenium deficient diet (FIG. 1)", "text": "as §1\nExperimental diets were created by Harlan Teklad (Madison, Wis.). Selenium content of the diets was determined by Covance Inc. (Madison, Wis.). […]\nThus, it was an object of the present invention to determine whether compositions and methods of the present invention could alter the expression levels (e.g., niRNA levels) of various genes. One group of genes analyzed were genes classically associated with selenium. As described above, the expression levels of genes were analyzed between mice with and without dietary selenium, or, between mice fed different sources of selenium) (See, e.g., Table 1, below)."}, "[5]": {"test_system": "Glutathione S-transferase, mu2 (Gstm2)", "test": "Intestinal gene expression: Gstm2", "assay_type": "in vivo", "conditions": "mouse intestine; diet 1 ppm Se, 100 days; vs Se-deficient diets; negative = down; NS = not significant", "text": "as §1, §2, §3"}, "SOD1": {"test_system": "SOD1", "test": "Intestinal gene expression: SOD1", "assay_type": "in vivo", "conditions": "mouse intestine; diet 1 ppm Se, 100 days; vs selenium deficient", "text": "as §1, §2, §3"}, "[6]": {"test_system": "Glutathione S-transferase, alpha 3 (Gsta3)", "test": "Intestinal gene expression: Gsta3", "assay_type": "in vivo", "conditions": "mouse intestine; diet 1 ppm Se, 100 days; vs Se-deficient diets; negative = down; NS = not significant", "text": "as §1, §2, §3"}, "[7]": {"test_system": "Glutathione S-transferase, mu3 (Gstm3)", "test": "Intestinal gene expression: Gstm3", "assay_type": "in vivo", "conditions": "mouse intestine; diet 1 ppm Se, 100 days; vs Se-deficient diets; negative = down; NS = not significant", "text": "as §1, §2, §3"}}, "data": [{"smiles": "C[Se]CC[C@H](N)C(=O)O", "note": "[SeM, selenomethionine]", "values": [{"measurement": "Lhx8 expression, upregulated", "setting": "[1]", "result": "not significantly different"}, {"measurement": "Dio2 expression, down-regulation", "setting": "[2]", "result": "no ability to alter the expression levels"}, {"measurement": "Glo1 expression, reduction of expression", "setting": "Glyoxalase 1 (Glo 1)", "result": "not significantly affected"}, {"measurement": "Spry2 gene expression, reduction", "setting": "[3]", "result": "no alteration"}]}, {"smiles": "O=[Se](O)O", "note": "[Sod-sel, sodium selenite]", "values": [{"measurement": "body weights of mice", "setting": "[4]", "result": "No significant differences"}, {"measurement": "FC Gstm2 expression", "setting": "[5]", "result": "−2.1", "unit": "fold"}, {"measurement": "enhanced expression of SOD1", "setting": "SOD1", "result": 1.92, "unit": "fold"}, {"measurement": "FC Gsta3 expression", "setting": "[6]", "result": "−2.3", "unit": "fold"}, {"measurement": "FC Gstm3 expression", "setting": "[7]", "result": "−2.7", "unit": "fold"}]}]}
